Laboratory results taken from US10364226B2, “Pyridazinone compounds and uses thereof” (priority 2013, dated 2019).

The compounds below were run against EN PA (Influenza A virus, UniProt P15659) (assay: EN PA FRET Inhibition Assay). Conditions: read-out: Potency.
Format: biochemical

| Structure (SMILES) | IC50 [nM] |
| --- | --- |
| CC(C)(C)c1ccc(-n2cc(O)c(=O)c(C(=O)O)n2)cc1 [Compound 3, 1-(4-tert-butylphenyl)-5-hydroxy-4-oxo-1,4-dihydropyridazine-3-carboxylic acid] | 100 to 1000 |
| COc1cccc(-n2cc(O)c(=O)c(C(=O)O)n2)c1 [Compound 5] | 100 to 1000 |
| CC(C)c1ccccc1-n1cc(O)c(=O)c(C(=O)O)n1 [Compound 8] | ≥ 1000 |
| Cc1cccc(C)c1-n1cc(O)c(=O)c(C(=O)O)n1 [Compound 12] | 100 to 1000 |
| COc1ccc(-c2ccccc2)cc1-n1cc(O)c(=O)c(C(=O)O)n1 [Compound 13] | 100 to 1000 |
| O=C(O)c1nn(-c2ccccc2OC(F)F)cc(O)c1=O [Compound 14] | ≥ 1000 |
| Cc1ccc2cccc(-n3cc(O)c(=O)c(C(=O)O)n3)c2n1 [Compound 15] | 100 to 1000 |
| CC(C)(C)c1ccccc1-n1cc(O)c(=O)c(C(=O)O)n1 [Compound 16] | 100 to 1000 |
| CCCCNS(=O)(=O)c1cccc(-n2cc(O)c(=O)c(C(=O)O)n2)c1 [Compound 22] | 100 to 1000 |
| CCOc1ccccc1-n1cc(O)c(=O)c(C(=O)O)n1 [Compound 23] | 100 to 1000 |
| CCCCOc1ccc(-n2cc(O)c(=O)c(C(=O)O)n2)cc1 [Compound 25] | ≥ 1000 |
| COc1cc(OC)cc(-n2cc(O)c(=O)c(C(=O)O)n2)c1 [Compound 26] | 100 to 1000 |
| O=C(O)c1nn(-c2ccc(C(F)(F)F)cc2)cc(O)c1=O [Compound 27] | 100 to 1000 |
| O=C(O)c1nn(-c2ccc(N3CCCCC3)cc2)cc(O)c1=O [Compound 28] | ≥ 1000 |
| O=C(O)c1nn(-c2ccccc2CCO)cc(O)c1=O [Compound 29] | 100 to 1000 |
| O=C(O)c1nn(-c2cccc(OC(F)(F)F)c2)cc(O)c1=O [Compound 30] | ≥ 1000 |
| CS(=O)(=O)c1ccc(-n2cc(O)c(=O)c(C(=O)O)n2)cc1 [Compound 31] | 100 to 1000 |
| O=C(O)c1nn(-c2ccc3c(c2)OCCO3)cc(O)c1=O [Compound 32] | 100 to 1000 |
| O=C(O)c1nn(-c2ccc3cn[nH]c3c2)cc(O)c1=O [Compound 33] | 100 to 1000 |
| CCc1ccccc1-c1ccccc1-n1cc(O)c(=O)c(C(=O)O)n1 [Compound 34] | 100 to 1000 |
| N#Cc1ccc(-c2ccccc2-n2cc(O)c(=O)c(C(=O)O)n2)cc1 [Compound 36] | 100 to 1000 |

| Structure (SMILES) | IC50 [nM] |
| --- | --- |
| CC(C)Cc1ccc(-c2ccccc2-n2cc(O)c(=O)c(C(=O)O)n2)cc1 [Compound 37] | 100 to 1000 |
| Cc1ccccc1-c1ccccc1-n1cc(O)c(=O)c(C(=O)O)n1 [Compound 38] | 100 to 1000 |
| CC(C)c1ccccc1-c1ccccc1-n1cc(O)c(=O)c(C(=O)O)n1 [Compound 39] | 100 to 1000 |
| O=C(O)c1nn(-c2ccccc2-c2ccccc2OC(F)(F)F)cc(O)c1=O [Compound 40] | 100 to 1000 |
| O=C(O)c1nn(-c2ccccc2N2CCOCC2)cc(O)c1=O [Compound 41] | 100 to 1000 |
| O=C(O)c1nn(-c2ccc3[nH]ncc3c2)cc(O)c1=O [Compound 42] | 100 to 1000 |
| O=C(O)c1nn(-c2ccc(Oc3ccccc3)cc2)cc(O)c1=O [Compound 43] | 100 to 1000 |
| CCOC(=O)c1nn(-c2ccccc2S(=O)(=O)c2ccccc2)cc(O)c1=O [Compound 44] | ≥ 1000 |
| O=C(O)c1nn(-c2ccccc2N2CCCC2)cc(O)c1=O [Compound 200, 5-hydroxy-4-oxo-1-(2-(pyrrolidin-1-yl)phenyl)-1,4-dihydropyridazine-3-carboxylic acid] | 100 to 1000 |
| O=C(O)c1nn(-c2cc(C(F)(F)F)ccc2N2CCCC2)cc(O)c1=O [Compound 201] | 100 to 1000 |
| CC1CCN(c2ccccc2-n2cc(O)c(=O)c(C(=O)O)n2)CC1 [Compound 202] | 100 to 1000 |
| CN1CCN(c2ccccc2-n2cc(O)c(=O)c(C(=O)O)n2)CC1 [Compound 204] | ≥ 1000 |
| CCN1CCN(c2ccccc2-n2cc(O)c(=O)c(C(=O)O)n2)CC1 [Compound 205] | ≥ 1000 |
| CC(C)(C)C1CCN(c2ccccc2-n2cc(O)c(=O)c(C(=O)O)n2)CC1 [Compound 208] | 100 to 1000 |
| CC1(C)CCCN(c2ccccc2-n2cc(O)c(=O)c(C(=O)O)n2)C1 [Compound 209] | 100 to 1000 |
| Cc1ccc(C)c(-c2ccccc2-n2cc(O)c(=O)c(C(=O)O)n2)c1 [Compound 300, 1-(2′,5′-dimethylbiphenyl-2-yl)-5-hydroxy-4-oxo-1,4-dihydropyidazine-3-carboxylic acid] | 100 to 1000 |
| Cc1cc(C)cc(-c2ccccc2-n2cc(O)c(=O)c(C(=O)O)n2)c1 [Compound 301] | 100 to 1000 |
| CC(C)(C)c1ccc(-c2ccccc2-n2cc(O)c(=O)c(C(=O)O)n2)cc1 [Compound 302] | 100 to 1000 |
| Cc1ccc(-c2ccccc2-n2cc(O)c(=O)c(C(=O)O)n2)cc1 [Compound 303] | 100 to 1000 |
| CC(C)(C)OC(=O)N1CCC(c2ccccc2-n2cc(O)c(=O)c(C(=O)O)n2)CC1 [Compound 304] | ≥ 1000 |
| Cc1cc(F)ccc1-c1ccccc1-n1cc(O)c(=O)c(C(=O)O)n1 [Compound 305] | 100 to 1000 |

| Structure (SMILES) | IC50 [nM] |
| --- | --- |
| O=C(O)c1nn(-c2ccccc2-c2ccc(F)cc2)cc(O)c1=O [Compound 306] | 100 to 1000 |
| O=C(O)c1nn(-c2ccccc2-c2ccc(C(F)(F)F)cc2)cc(O)c1=O [Compound 307] | 100 to 1000 |
| O=C(O)c1nn(-c2ccccc2C2CCCCC2)cc(O)c1=O [Compound 308] | 100 to 1000 |
| Cc1cccc(-c2ccccc2-n2cc(O)c(=O)c(C(=O)O)n2)c1C [Compound 309] | ≥ 1000 |
| CC(C)Oc1ccccc1-c1ccccc1-n1cc(O)c(=O)c(C(=O)O)n1 [Compound 310] | 100 to 1000 |
| O=C(O)c1nn(-c2ccccc2-c2ccccc2Oc2ccccc2)cc(O)c1=O [Compound 311] | < 100 |
| O=C(O)c1nn(-c2ccccc2C2CCNCC2)cc(O)c1=O [Compound 312] | ≥ 1000 |
| O=C(O)c1nn(-c2ccccc2-c2ccc3cc[nH]c3c2)cc(O)c1=O [Compound 313] | 100 to 1000 |
| COc1ccccc1-c1ccccc1-n1cc(O)c(=O)c(C(=O)O)n1 [Compound 315] | 100 to 1000 |
| O=C(O)c1nn(-c2ccccc2-c2cccc3c2oc2ccccc23)cc(O)c1=O [Compound 316] | 100 to 1000 |
| O=C(O)c1nn(-c2ccccc2-c2ccccc2OC2CCCCC2)cc(O)c1=O [Compound 317] | < 100 |
| COc1cccc(-c2ccccc2-n2cc(O)c(=O)c(C(=O)O)n2)c1 [Compound 318] | 100 to 1000 |
| COc1ccc(Cl)c(-c2ccccc2-n2cc(O)c(=O)c(C(=O)O)n2)c1 [Compound 322] | 100 to 1000 |
| COc1cc(Cl)cc(-c2ccccc2-n2cc(O)c(=O)c(C(=O)O)n2)c1 [Compound 323] | 100 to 1000 |
| Cn1ccc2ccc(-c3ccccc3-n3cc(O)c(=O)c(C(=O)O)n3)cc21 [Compound 324] | 100 to 1000 |
| CC(C)COc1ccccc1-c1ccccc1-n1cc(O)c(=O)c(C(=O)O)n1 [Compound 325] | < 100 |
| COc1ccccc1CCn1cc(O)c(=O)c(C(=O)O)n1 [Compound 413] | < 100 |
| COc1cccc(CCn2cc(O)c(=O)c(C(=O)O)n2)c1 [Compound 414] | < 100 |
| COc1ccc(CCn2cc(O)c(=O)c(C(=O)O)n2)cc1 [Compound 415] | 100 to 1000 |
| COc1ccc(CCn2cc(O)c(=O)c(C(=O)O)n2)cc1OC [Compound 417] | 100 to 1000 |
| O=C(O)c1nn(C2CCc3ccccc3C2=O)cc(O)c1=O (stereo not drawn) [Compound 418] | 100 to 1000 |

| Structure (SMILES) | IC50 [nM] |
| --- | --- |
| O=C(O)c1nn(CC2(c3cc(C(F)(F)F)cc(C(F)(F)F)c3)CCCC2)cc(O)c1=O [Compound 419] | < 100 |
| CCOC(=O)c1nn(CC2(c3cc(C(F)(F)F)cc(C(F)(F)F)c3)CCCC2)cc(O)c1=O [Compound 420] | 100 to 1000 |
| Cc1cn(C2(Cn3cc(O)c(=O)c(C(=O)O)n3)CCCC2)c2ncccc12 [Compound 425] | 100 to 1000 |
| O=C(NC1CC1)c1nn(CC2(c3cc(C(F)(F)F)cc(C(F)(F)F)c3)CCCC2)cc(O)c1=O [Compound 508] | 100 to 1000 |
| CNC(=O)c1nn(-c2ccccc2-c2ccccc2OC(F)(F)F)cc(O)c1=O [Compound 520] | ≥ 1000 |
| CNC(=O)c1nn(-c2ccccc2-c2ccc3cc[nH]c3c2)cc(O)c1=O [Compound 521] | ≥ 1000 |
| CNC(=O)c1nn(-c2ccccc2-c2cc(C)ccc2OC(C)C)cc(O)c1=O [Compound 522] | 100 to 1000 |
| CNC(=O)c1nn(-c2ccccc2N2CCN(C)CC2)cc(O)c1=O [Compound 600, 1,4-dihydro-5-hydroxy-N-methyl-1-(2-(4-methylpiperazin-1-yl)phenyl)-4-oxopyridazine-3-carboxamide] | ≥ 1000 |
| CNC(=O)c1nn(-c2ccc3c(c2)OCCO3)cc(O)c1=O [Compound 601, 1,4-dihydro-1-(2,3-dihydrobenzo[b][1,4]dioxin-6-yl)-5-hydroxy-N-methyl-4-oxopyridazine-3-carboxamide] | ≥ 1000 |
| CNC(=O)c1nn(CCc2cccc(C(F)(F)F)c2)cc(O)c1=O [Compound 608] | ≥ 1000 |
| CCN1CCN(c2ccccc2-n2cc(O)c(=O)c(C(=O)NC)n2)CC1 [Compound 615] | ≥ 1000 |
| CNC(=O)c1nn(-c2ccccc2N2CCCC(C)(C)C2)cc(O)c1=O [Compound 616] | ≥ 1000 |
| NC(=O)c1nn(-c2ccccc2S(=O)(=O)c2ccccc2)cc(O)c1=O [Compound 617] | ≥ 1000 |
| CNC(=O)c1nn(-c2ccccc2-c2ccc3ccn(C)c3c2)cc(O)c1=O [Compound 618] | ≥ 1000 |
| CNC(=O)c1nn(-c2ccccc2-c2ccc3c(ccn3C)c2)cc(O)c1=O [Compound 620] | ≥ 1000 |
| CNC(=O)c1nn(CC2(c3ccccc3)CCCC2)cc(O)c1=O [Compound 627] | 100 to 1000 |
| CNC(=O)c1nn(-c2ccccc2N2CCCc3ccccc32)cc(O)c1=O [Compound 628] | ≥ 1000 |
| CNC(=O)c1nn(-c2ccccc2-c2cc(Cl)cc(OC)c2)cc(O)c1=O [Compound 629] | ≥ 1000 |
| CNC(=O)c1nn(-c2ccccc2-c2ccccc2OCC(C)C)cc(O)c1=O [Compound 630] | 100 to 1000 |
| CNC(=O)c1nn(-c2ccccc2N2CCc3ccccc32)cc(O)c1=O [Compound 632] | ≥ 1000 |
| CCOc1cc(C)cc(-c2ccccc2-n2cc(O)c(=O)c(C(=O)NC)n2)c1 [Compound 633] | ≥ 1000 |
